Measured values reported in EP0495432A1, “Hexa-cyclic compound” (DAIICHI PHARMACEUTICAL CO., LTD., priority 1991, dated 1992).

system: P388 murine leukemia cells; experiment: Cytotoxicity against P388 murine leukemia cells (MTT assay); type: cell-based; conditions: Mus musculus, P388, P388 cells 2.5x10³ per well, sample added after 24 hours, cultivated 3 days at 37°C, 5% CO₂, absorption at 540 nm, read-out: IC₅₀
Procedure: P388 murine leukemia cells were spread over a 96-well microplate, 2.5x10³ cells per well. A sample to be tested was added after 24 hours. Cells were cultivated under the conditions of 5% CO₂ at 37°C for 3 days. 3-(4,5-Dimethylthiazol-2-yl)-2,5-diphenyl-2H-tetrazolium bromide (MTT) was added 4 hours after the addition of the sample. Upon the addition of 200 µl/ml of isopropyl alcohol containing 0.04 N HCl the absorption at 540 nm was measured to determine IC₅₀.

Row | Compound | IC50 [µg/mL]
1 | CC[C@@]1(O)C(=O)OCc2c1cc1n(c2=O)Cc2c-1nc1ccc(OC)c3c1c2CCC3N.Cl (single isomer, unassigned) [Example 7 (Isomer A)] | 0.0114

same assay, conditions: P388 cells 2.5x10³ per well, sample added after 24 hours, cultivated 3 days at 37°C, 5% CO₂, absorption at 540 nm, hydrochloride

Row | Compound | IC₅₀ [ng/mL]
2 | CC[C@@]1(O)C(=O)OCc2c1cc1n(c2=O)Cc2c-1nc1cccc3c1c2C(N)CC3.Cl (single isomer, unassigned) [Example 2 (Isomer A)] | 3.38
3 | CC[C@@]1(O)C(=O)OCc2c1cc1n(c2=O)Cc2c-1nc1cccc3c1c2C(N)CC3.Cl (single isomer, unassigned) [Example 2 (Isomer B)] | 12.40
4 | CC[C@@]1(O)C(=O)OCc2c1cc1n(c2=O)Cc2c-1nc1ccc(OC)c3c1c2C(N)CC3.Cl (single isomer, unassigned) [Example 4 (Isomer A)] | 9.21
5 | CC[C@@]1(O)C(=O)OCc2c1cc1n(c2=O)Cc2c-1nc1ccc(OC)c3c1c2C(N)CC3.Cl (single isomer, unassigned) [Example 4 (Isomer B)] | 27.80
6 | CC[C@@]1(O)C(=O)OCc2c1cc1n(c2=O)Cc2c-1nc1ccc(OC)c3c1c2CCC3N.Cl (single isomer, unassigned) [Example 7 (Isomer B)] | 11.90
